These results are taken from patent publication US20140323500A1, “NADPH OXIDASE 4 INHIBITORS AND USE THEREOF” (GENKYOTEX SA, priority 2011, published 2014).

The experiment concerns female mice subjected to ovariectomy. The experiment in a line: Ovariectomy-induced osteoporosis (bone loss) in mice. The experiment is classed as in vivo. The protocol:
BMD of the left femur was measured by peripheral quantitative computed tomography (QCT) using an XCT Research QCT machine (Stratec Medizintechnik, Pforzheim, Germany). One slice (0.2 mm thick) in the mid-diaphysis of the femur and 3 slices in the distal femoral metaphysis located 1.5, 2, and 2.5 mm proximal to the articular surface of the knee joint were measured. BMD values of the distal femoral metaphysic were calculated as the mean of 3 slices. A voxel size of 0.070 mm and a threshold of 710 mg/cm^3 were used for calculation of BMD as described in Hofbauer et al., 2009, Arthritis Rheum., 60(5):1427-1437.
The control group received daily gavages by the solvent.
To study the latter effect, female mice were subjected to ovariectomy to induce osteoporosis and the effect of pharmacological inhibition of Nox4 with a Nox4 inhibitor as well as acute genetic knockout of the protein was studied. For this, mice were subjected to ovariectomy 8 weeks after birth and treatment at 60 mg/kg with a Nox4 inhibitor of the invention was started 2 days after the operation and continued throughout the study (6 weeks).
3, Hamburg was used which completely blocks osteoclast activity. […] For this, bones were scanned with a skyscan 1176 and bone density was analysed with the integrated software using two phantoms with 0.25 g/cm^3 and 0.75 g/cm^3 as reference. A 2 mm portion of the femur from the tibia plateau was analysed for total and trabecular bone density by the software provided by the manufacturer of the machine. […] For this method, the femurs were loaded to failure by 3-point bending tests using a Zwick Z020/TN2A materials testing machine (Zwick, Ulm, Germany) with a 1 kN force detector, and a force resolution of 0.01N. The distance between the lower supports for the bending tests was 5 mm. Crosshead speed during testing was 0.2 mm/minute for all measurements. From the force-displacement data, ultimate force (Fmax; in N) was calculated.

Turning to `COc1ccc(-c2c3c(=O)n(-c4ccccc4OC)[nH]c3cc(=O)n2Cc2cccnc2)c(F)c1` [Compound (1), 4-(2-fluoro-4-methoxyphenyl)-2-(2-methoxyphenyl)-5-(pyridin-3-ylmethyl)-1H-pyrazolo[4,3-c]pyridine-3,6(2H,5H)-dione], the “absolute bone density (total)” value (distal femur 6 weeks after ovariectomy, compound 1 at 20 and 60 mg/kg, pamidronat 10 mg/kg once a week, microCT, FIG. 6A) is on record as “increased absolute bone density”. For the same compound, the “absolute trabecular bone density” value (distal femur 6 weeks after ovariectomy, compound 1 at 20 and 60 mg/kg, pamidronat 10 mg/kg once a week, microCT, FIG. 6B) was “increased”. For the setting “distal femur 6 weeks after ovariectomy, compound 1 at 20 and 60 mg/kg, pamidronat 10 mg/kg once a week, microCT, FIG. 6C”, the “relative inhibition of ovarectomy-induced total bone loss” value is about 50%. Where the note is “distal femur 6 weeks after ovariectomy, compound 1 at 20 and 60 mg/kg, pamidronat 10 mg/kg once a week, microCT, FIG. 6D”, the “relative inhibition of trabecular bone loss” value is recorded as “approximately 60%”. Also, the “bone breaking strength (3-point breaking test)” value (highest concentration (of 20 and 60 mg/kg), femur, 6 weeks after ovariectomy, FIG. 6E) is listed as “significant increase in bone breaking strength”.
